Assay results as given in US11819510B2, “Food composition for ameliorating cerebrovascular diseases containing 2′- fucosyllactose and pharmaceutical composition for preventing or treating cerebrovascular diseases containing 2′-fucosyllactose” (Advanced Protein Technologies Corp., priority 2020, dated 2023).

How the values were obtained:
platelet αIIbβ3 integrin = assay: Flow cytometry of platelet αIIbβ3 integrin activation after CRP activation; type: cell-based, mouse; conditions: 300 to 1,000 μM, concentration-dependent; 0.15 μg/ml CRP 5 minutes; vs vehicle; FIG. 3B
Description: (§1) Platelets were collected from the abdominal vein of mice (6-8 weeks of age) using a syringe pretreated with a citrate-dextrose solution (ACD, Sigma). After centrifugation at 300×g at room temperature for 20 minutes to obtain platelet-rich plasma (PRP), 0.5 μM PGE1 was added to the plasma isolated from red blood cells, followed by re-centrifugation at 700×g for 4 minutes. The precipitated platelets were washed with HEPES-Tyrode buffer (5 mM HEPES/NaOH, pH 7.3, 5 mM glucose, 136 mM NaCl, 12 mM NaHCO3, 2.7 mM KCl) containing 10% ACD, followed by centrifugation at 700×g for 5 min. The precipitated platelets were adjusted to a concentration of 3×10^8 cells/mL in HEPES-Tyrode buffer and used in this experiment.
(§2) The activity of each of platelet P-selectin and αIIbβ3, which are known biomarkers of platelet activity, was measured using a flow cytometer (Gallios, Beckman Coulter). Mouse platelets were pretreated with a vehicle (distilled water), 1,000 μM FOS and 3-fucosyllactose, and various concentrations (300 to 1,000 μM) of 2′-fucosyllactose at 37° C. for 15 minutes, and were then activated with 0.15 ug/ml CRP at 37° C. for 5 minutes, after which the activity thereof was measured using P-selectin and αIIbβ3 antibodies.
(§3) The mechanism of inhibition of platelet activation by HMOs was determined. […]

[1] = system: thrombin-induced aggregation of mouse platelets; assay: Platelet aggregation induced by thrombin; type: cell-based; conditions: thrombin 0.025 U/ml; pretreated 37° C. 15 minutes; vs vehicle; FIG. 2C
Description: as §1
(§4) Mouse platelets immersed in HEPES-Tyrode buffer at a concentration of 3×10^8 cells/mL were pre-treated with a vehicle (distilled water), 1,000 μM FOS, 3′-fucosyllactose, and various concentrations (300 to 1,000 μM) of 2′-fucosyllactose at 37° C. for 15 minutes, and were then activated awith CRP, collagen, thrombin, and thromboxane A2 analogues in a platelet aggregation system. Platelet aggregation was induced at a rate of 1,000 rpm at 37° C. and then measured in a platelet aggregation meter (Chrono-log Corp, Havertown, PA). […]

HepG2 cells = assay: HMO cytotoxicity test (CCK assay); type: cell-based; conditions: 24 hours treatment, FIG. 4
Description: In this experimental example, the cytotoxicity of HMOs was evaluated by CCK assay (Oh, Y. C.; Jeong, Y. H.; Pak, M. E.; Go, Y., Banhasasim-Tang Attenuates Lipopolysaccharide-Induced Cognitive Impairment by Suppressing Neuroinflammation in Mice. Nutrients 2020, 12, (7)). No protocol for measuring cytotoxicity to platelets has been established, so HepG2 cells were pretreated with an HMO (2′-fucosyllactose or 3-fucosyllactose) in a concentration-dependent manner. After 24 hours, each well was treated with a cell-counting kit solution (Dojindo Molecular Technologies, Inc.), and further incubated for 1 hour, and then absorbance was measured at a wavelength of 450 nm using a microplate reader.

[2] = system: CRP-induced aggregation of mouse platelets; assay: Platelet aggregation induced by CRP; type: cell-based; conditions: CRP 0.15 μg/ml; 2′-fucosyllactose 300 to 1,000 μM, FOS and 3-fucosyllactose 1,000 μM; pretreated 37° C. 15 minutes; vs vehicle; FIG. 2A
[3] = system: carotid artery thrombosis; assay: FeCl3-induced carotid artery thrombosis mouse model, blood flow measurement; type: in vivo; conditions: 7 days, FeCl3 (10%) mouse model, vehicle 7.47 minutes
Description: Male C57BL/6 mice (6-8 weeks old) used in the experiment were purchased from Dooyeol Biotech Co., Ltd., were acclimatized for a predetermined period at 23±1° C. and 56% relative humidity while a general diet was provided thereto for 1 week, and were then used for the experiment. In the following, animal experiments were performed in accordance with the guide for the animal study protocols approved by the Korea Institute of Oriental Medicine Institutional Animal Care and Use Committee (approval number: 20-058). FeCl3 (10%) was used to establish a thrombosis-induced mouse model. Mice were orally administered with 2′-fucosyllactose (500, 1,000 mg/kg BW), 3-fucosyllactose (1,000 mg/kg BW), or ASA (100 mg/kg BW) for 7 days. 2 hours after the last administration, the mice were anesthetized with 2% isoflurane, the left carotid artery was isolated from each mouse, and filter paper (2 mm in diameter) soaked with FeCl3 (10%) was placed on the carotid artery for 2 minutes to induce thrombosis. Blood flow was measured using a blood flow meter (AD meter).

[4] = system: collagen-induced aggregation of mouse platelets; assay: Platelet aggregation induced by collagen; type: cell-based; conditions: collagen 0.5 μg/ml; 2′-fucosyllactose 300 to 1,000 μM, FOS and 3-fucosyllactose 1,000 μM; pretreated 37° C. 15 minutes; vs vehicle; FIG. 2B
[5] = system: P-selectin of mouse platelet α-granule; assay: Flow cytometry of platelet P-selectin exposure after CRP activation; type: cell-based; conditions: 300 to 1,000 μM, concentration-dependent; 0.15 μg/ml CRP 5 minutes; vs vehicle; FIG. 3A
Description: as §1, §2, §3

[6] = system: thromboxane A2 analogue-induced aggregation of mouse platelets; assay: Platelet aggregation induced by thromboxane A2 analogue (U46619); type: cell-based; conditions: thromboxane A2 analogue 3 μM; pretreated 37° C. 15 minutes; vs vehicle; FIG. 2D
Description: as §1, §4

## 2′-fucosyllactose
Platelet αIIbβ3 integrin
  inhibition of activation of platelet αIIbβ3 integrin: significantly inhibit
[1]
  inhibition of platelet aggregation induced by thrombin: did not exhibit an inhibitory effect
HepG2 cells
  cell death of HepG2 (cell viability, CCK assay): not observed
[2]
  inhibition of platelet aggregation induced by CRP: significantly inhibited
[3]; 500 mg/kg BW oral
  average carotid artery occlusion time: 11.79 min
[3]; 1,000 mg/kg BW oral
  average carotid artery occlusion time: 14.52 min
[4]
  inhibition of platelet aggregation induced by collagen: significantly inhibited
[5]
  inhibition of activation of P-selectin of mouse platelet α-granule: significantly inhibit
[6]
  inhibition of platelet aggregation induced by thromboxane A2 analogue: did not exhibit an inhibitory effect

## 3-fucosyllactose [reference compound]
HepG2 cells
  cell death of HepG2 (cell viability, CCK assay): not observed
[2]
  inhibition of platelet aggregation induced by CRP: not significantly inhibited
[3]; 1,000 mg/kg BW oral
  average carotid artery occlusion time: 8.18 min
[4]
  inhibition of platelet aggregation induced by collagen: not significantly inhibited

## CC(=O)Oc1ccccc1C(=O)O [aspirin, reference compound]
[3]; 100 mg/kg BW oral, positive control
  carotid artery occlusion time: 18.05 min

## fructooligosaccharide [FOS]
[2]
  inhibition of platelet aggregation induced by CRP: not significantly inhibited
[4]
  inhibition of platelet aggregation induced by collagen: not significantly inhibited
